The values that follow come from PubChem BioAssay AID2060602 (Molecular Pharmacology Branch, DTP, NCI, 2025).

Where “and” joins values, the source holds several entries; their conditions need not be identical. Equal values may be shown once.

The test deals with 648629-189-R-J1-PDC complex spheroids viability. The experiment in a line: Anticancer human tumor 648629-189-R-J1-PDC patient-derived bladder carcinoma cell line growth inhibition [CLK]. The following applies: for viability, T/C: stronger effect = lower value. Put shortly:
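Patient-derived tumor cells grown as complex spheroids with HUVEC endothelial cells and mesenchymal stem cells, treated with drug combinations. Concentrations descend in half-log steps from near clinical Cmax, or from 10 microM if Cmax unknown.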
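For viability, T/C in this document: drug exposure lasted seven days before viability readout; 100% = DMSO vehicle control wells.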

As a reminder, the IC50 is the concentration that inhibits the measured activity by half. As usually defined, the viability, T/C is the ratio of treated to control. As for `CC(CO)NC(=O)c1cc(-c2ccc(Cl)cc2)nn(-c2cnn(C)c2)c1=O` (stereo unspecified) + CN1CCN(c2cc(C(=O)Nc3cc4cc(-c5cnn(C)c5)ccc4cn3)ccn2)CC1, the IC50 is over 10000 nM (curve of first compound, second compound 0.0316 µM); over 10000 nM (curve of first compound, second compound 0.1 µM); under 31.6 nM (curve of first compound, second compound 0.316 µM); under 31.6 nM (curve of first compound, second compound 1 µM); under 31.6 nM (curve of first compound, second compound 3.16 µM); under 31.6 nM (curve of first compound, second compound 10 µM). Moreover, the viability, T/C (second compound 0.0316 µM, first compound 0.0316 µM) is 109%; the viability, T/C (second compound 0.0316 µM, first compound 0.1 µM) was 109%; the viability, T/C (second compound 0.0316 µM, first compound 0.316 µM) is 99.3%; the viability, T/C (second compound 0.0316 µM, first compound 1 µM) was 125%; the viability, T/C (second compound 0.0316 µM, first compound 3.16 µM) is 109%; the viability, T/C (second compound 0.0316 µM, first compound 10 µM) was 85.6%. Further, the viability, T/C is 103% (second compound 0.1 µM, first compound 0.0316 µM); 100% (second compound 0.1 µM, first compound 0.1 µM); 94.5% (second compound 0.1 µM, first compound 0.316 µM); 114% (second compound 0.1 µM, first compound 1 µM); 105% (second compound 0.1 µM, first compound 3.16 µM); 84.7% (second compound 0.1 µM, first compound 10 µM). Also, the viability, T/C was 38.1% (second compound 0.316 µM, first compound 0.0316 µM); 51.2% (second compound 0.316 µM, first compound 0.1 µM); 44.7% (second compound 0.316 µM, first compound 0.316 µM); 56.9% (second compound 0.316 µM, first compound 1 µM); 47.2% (second compound 0.316 µM, first compound 3.16 µM); 43.6% (second compound 0.316 µM, first compound 10 µM). Moreover, the viability, T/C (second compound 1 µM, first compound 0.0316 µM) is 0.43%; the viability, T/C (second compound 1 µM, first compound 0.1 µM) was 0.37%; the viability, T/C (second compound 1 µM, first compound 0.316 µM) was 0.32%; the viability, T/C (second compound 1 µM, first compound 1 µM) is 0.48%; the viability, T/C (second compound 1 µM, first compound 3.16 µM) was 0.38%; the viability, T/C (second compound 1 µM, first compound 10 µM) is 0.26%. For the same molecule, the viability, T/C was 0.14% (second compound 3.16 µM, first compound 0.0316 µM); 0.17% (second compound 3.16 µM, first compound 0.1 µM); 0.16% (second compound 3.16 µM, first compound 0.316 µM); 0.18% (second compound 3.16 µM, first compound 1 µM); 0.17% (second compound 3.16 µM, first compound 3.16 µM); 0.18% (second compound 3.16 µM, first compound 10 µM). In addition, the viability, T/C (second compound 10 µM, first compound 0.0316 µM) was 0.22%; the viability, T/C (second compound 10 µM, first compound 0.1 µM) is 0.25%; the viability, T/C (second compound 10 µM, first compound 0.316 µM) was 0.22%; the viability, T/C (second compound 10 µM, first compound 1 µM) was 0.23%; the viability, T/C (second compound 10 µM, first compound 3.16 µM) was 0.24%; the viability, T/C (second compound 10 µM, first compound 10 µM) is 0.22%.

On to `CC1COCCN1c1cc(C2(S(C)(=N)=O)CC2)nc(-c2ccnc3[nH]ccc23)n1` (stereo unspecified), for which the viability, T/C by setting is: (compound 0.0316 µM) 103% and 105%; (compound 0.1 µM) 96.5% and 93.5%; (compound 0.316 µM) 108% and 97%; (compound 1 µM) 87.4% and 95%; (compound 3.16 µM) 47.8% and 45.4%; (compound 10 µM) 23.8% and 18.8%. In addition, the IC50 (curve of compound) was 2930 nM and 2840 nM.

Regarding `NC(=O)C(=Cn1cnc(-c2cc(C(F)(F)F)cc(C(F)(F)F)c2)n1)c1cncnc1`, the viability, T/C is 102% and 105% (compound 0.00949 µM); 86.1% and 84.8% (compound 0.03 µM); 24.7% and 19.3% (compound 0.0949 µM); 9.87% and 6.77% (compound 0.3 µM); 3.5% and 4.03% (compound 0.949 µM); 1.5% and 1.39% (compound 3 µM). The IC50 (curve of compound) is 59.3 nM and 55.4 nM.
